According to US20130338106A1, “COMPOUNDS INHIBITING LEUCINE-RICH REPEAT KINASE ENZYME ACTIVITY” (priority 2011, published 2013):
Read-outs that look alike come from different tables or passages of the source.

Columns and labels:
Assay type in all cases: biochemical
[1] = target: T1, FLT-3 D835Y (Homo sapiens, UniProt P36888, D835Y); assay: ProfilerPro Kinase Selectivity, FLT-3 D835Y; conditions: tested at 10 uM, read-out: percent inhibition of the kinase activity
T1 construct: purchased Caliper LifeSciences
Description: (§1) Kinome selectivity profiling was performed using two example compounds according to the manufacturer's instructions using Caliper LifeSciences' ProfilerPro Kinase Selectivity Assay Kits. Compounds prepared in Examples 1 and 7 were tested at 10 uM and data were recorded using the Caliper LabChip® EZ Reader™. Each compounds' percent inhibition of the kinase activity measured in this manner is reported in the following lists.

[2] = target: T2, GCK (Homo sapiens, UniProt Q12851); assay: ProfilerPro Kinase Selectivity, GCK; conditions: tested at 10 uM, read-out: percent inhibition of the kinase activity
T2 construct: purchased Caliper LifeSciences
T2 sequence (Q12851 whole entry): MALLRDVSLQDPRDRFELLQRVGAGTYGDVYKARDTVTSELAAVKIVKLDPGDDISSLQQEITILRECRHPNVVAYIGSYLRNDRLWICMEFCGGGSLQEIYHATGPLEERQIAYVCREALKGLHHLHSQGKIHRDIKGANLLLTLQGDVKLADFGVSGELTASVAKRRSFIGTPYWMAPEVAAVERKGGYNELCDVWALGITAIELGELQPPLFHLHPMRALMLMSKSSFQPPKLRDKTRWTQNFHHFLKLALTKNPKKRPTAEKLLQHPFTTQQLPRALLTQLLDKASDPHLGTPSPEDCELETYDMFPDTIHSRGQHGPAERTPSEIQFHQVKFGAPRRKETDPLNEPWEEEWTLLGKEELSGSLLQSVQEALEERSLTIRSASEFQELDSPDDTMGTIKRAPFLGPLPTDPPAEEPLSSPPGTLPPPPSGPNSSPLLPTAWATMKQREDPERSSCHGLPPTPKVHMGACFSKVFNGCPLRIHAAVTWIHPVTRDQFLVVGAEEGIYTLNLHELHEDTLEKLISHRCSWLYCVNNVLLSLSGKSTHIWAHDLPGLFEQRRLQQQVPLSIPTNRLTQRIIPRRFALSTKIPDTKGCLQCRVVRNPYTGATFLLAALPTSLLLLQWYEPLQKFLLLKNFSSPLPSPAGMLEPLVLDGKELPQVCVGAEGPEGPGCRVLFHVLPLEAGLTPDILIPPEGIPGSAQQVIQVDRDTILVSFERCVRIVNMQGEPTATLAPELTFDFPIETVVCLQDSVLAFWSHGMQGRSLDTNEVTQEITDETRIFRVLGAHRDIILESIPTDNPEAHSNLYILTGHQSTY
Description: as §1

[3] = target: T3, AKT2 (Homo sapiens, UniProt P31751); assay: ProfilerPro Kinase Selectivity, AKT2; conditions: tested at 10 uM, read-out: percent inhibition of the kinase activity
T3 construct: purchased Caliper LifeSciences
Description: as §1

[4] = target: T4, HIPK2 (Homo sapiens, UniProt Q9H2X6); assay: ProfilerPro Kinase Selectivity, HIPK2; conditions: tested at 10 uM, read-out: percent inhibition of the kinase activity
T4 construct: purchased Caliper LifeSciences
Description: as §1

[5] = target: T5, SGK2 (Homo sapiens, UniProt Q9HBY8); assay: ProfilerPro Kinase Selectivity, SGK2; conditions: tested at 10 uM, read-out: percent inhibition of the kinase activity
T5 construct: purchased Caliper LifeSciences
Description: as §1

[6] = target: T6, FGFR3 (Homo sapiens, UniProt P22607); assay: ProfilerPro Kinase Selectivity, FGFR3; conditions: tested at 10 uM, read-out: percent inhibition of the kinase activity
T6 construct: purchased Caliper LifeSciences
Description: as §1

[7] = target: T7, GSK3A (Homo sapiens, UniProt P49840); assay: ProfilerPro Kinase Selectivity, GSK3A; conditions: tested at 10 uM, read-out: percent inhibition of the kinase activity
T7 construct: purchased Caliper LifeSciences
Description: as §1

[8] = target: T8, ERK2 (Homo sapiens, UniProt P28482); assay: ProfilerPro Kinase Selectivity, ERK2; conditions: tested at 10 uM, read-out: percent inhibition of the kinase activity
T8 construct: purchased Caliper LifeSciences
T8 sequence (P28482 whole entry, species assumed): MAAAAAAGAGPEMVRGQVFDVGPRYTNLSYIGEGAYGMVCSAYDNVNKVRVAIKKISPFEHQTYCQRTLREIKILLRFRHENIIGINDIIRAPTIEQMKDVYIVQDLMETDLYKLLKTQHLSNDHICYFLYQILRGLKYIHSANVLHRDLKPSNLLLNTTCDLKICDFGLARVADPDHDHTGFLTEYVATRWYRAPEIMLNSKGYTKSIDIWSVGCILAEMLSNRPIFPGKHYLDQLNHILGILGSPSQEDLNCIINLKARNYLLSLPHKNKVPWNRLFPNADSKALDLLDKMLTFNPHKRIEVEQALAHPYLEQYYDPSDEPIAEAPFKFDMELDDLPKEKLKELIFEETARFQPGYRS
Description: as §1

[9] = target: T9, MAPKAPK5 (Homo sapiens, UniProt Q8IW41); assay: ProfilerPro Kinase Selectivity, MAPKAPK5; conditions: tested at 10 uM, read-out: percent inhibition of the kinase activity
T9 construct: purchased Caliper LifeSciences
T9 sequence (Q8IW41 whole entry, species assumed): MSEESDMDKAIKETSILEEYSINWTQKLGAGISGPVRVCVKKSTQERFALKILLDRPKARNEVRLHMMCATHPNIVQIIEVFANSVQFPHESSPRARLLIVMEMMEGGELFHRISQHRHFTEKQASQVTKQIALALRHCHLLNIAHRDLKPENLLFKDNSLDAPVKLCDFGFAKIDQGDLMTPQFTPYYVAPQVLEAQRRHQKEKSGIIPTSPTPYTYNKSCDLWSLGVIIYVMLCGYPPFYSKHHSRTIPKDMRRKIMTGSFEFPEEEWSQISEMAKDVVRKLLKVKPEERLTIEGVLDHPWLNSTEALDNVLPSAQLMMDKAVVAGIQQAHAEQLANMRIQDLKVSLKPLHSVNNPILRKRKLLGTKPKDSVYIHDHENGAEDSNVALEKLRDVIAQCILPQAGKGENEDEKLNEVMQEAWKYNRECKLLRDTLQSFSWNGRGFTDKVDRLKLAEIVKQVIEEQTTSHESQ
Description: as §1

[10] = target: T10, PIM2 (Homo sapiens, UniProt Q9P1W9); assay: ProfilerPro Kinase Selectivity, PIM2; conditions: tested at 10 uM, read-out: percent inhibition of the kinase activity
T10 construct: purchased Caliper LifeSciences
Description: as §1

[11] = target: T11, PAK2 (Homo sapiens, UniProt Q13177); assay: ProfilerPro Kinase Selectivity, PAK2; conditions: tested at 10 uM, read-out: percent inhibition of the kinase activity
T11 construct: purchased Caliper LifeSciences
Description: as §1

[12] = target: T12, MET M1250T (Homo sapiens, UniProt P08581, M1250T); assay: ProfilerPro Kinase Selectivity, MET M1250T; conditions: tested at 10 uM, read-out: percent inhibition of the kinase activity
T12 construct: purchased Caliper LifeSciences
Description: as §1

[13] = target: T13, PRKX (Homo sapiens, UniProt P51817); assay: ProfilerPro Kinase Selectivity, PRKX; conditions: tested at 10 uM, read-out: percent inhibition of the kinase activity
T13 construct: purchased Caliper LifeSciences
Description: as §1

[14] = target: T14, IRAK4 (Homo sapiens, UniProt Q9NWZ3); assay: ProfilerPro Kinase Selectivity, IRAK4; conditions: tested at 10 uM, read-out: percent inhibition of the kinase activity
T14 construct: purchased Caliper LifeSciences
Description: as §1

[15] = target: T15, MSK2 (Homo sapiens, UniProt O75676); assay: ProfilerPro Kinase Selectivity, MSK2; conditions: tested at 10 uM, read-out: percent inhibition of the kinase activity
T15 construct: purchased Caliper LifeSciences
Description: as §1

[16] = target: T16, HIPK1 (Homo sapiens, UniProt Q86Z02); assay: ProfilerPro Kinase Selectivity, HIPK1; conditions: tested at 10 uM, read-out: percent inhibition of the kinase activity
T16 construct: purchased Caliper LifeSciences
T16 sequence (Q86Z02 whole entry, species assumed): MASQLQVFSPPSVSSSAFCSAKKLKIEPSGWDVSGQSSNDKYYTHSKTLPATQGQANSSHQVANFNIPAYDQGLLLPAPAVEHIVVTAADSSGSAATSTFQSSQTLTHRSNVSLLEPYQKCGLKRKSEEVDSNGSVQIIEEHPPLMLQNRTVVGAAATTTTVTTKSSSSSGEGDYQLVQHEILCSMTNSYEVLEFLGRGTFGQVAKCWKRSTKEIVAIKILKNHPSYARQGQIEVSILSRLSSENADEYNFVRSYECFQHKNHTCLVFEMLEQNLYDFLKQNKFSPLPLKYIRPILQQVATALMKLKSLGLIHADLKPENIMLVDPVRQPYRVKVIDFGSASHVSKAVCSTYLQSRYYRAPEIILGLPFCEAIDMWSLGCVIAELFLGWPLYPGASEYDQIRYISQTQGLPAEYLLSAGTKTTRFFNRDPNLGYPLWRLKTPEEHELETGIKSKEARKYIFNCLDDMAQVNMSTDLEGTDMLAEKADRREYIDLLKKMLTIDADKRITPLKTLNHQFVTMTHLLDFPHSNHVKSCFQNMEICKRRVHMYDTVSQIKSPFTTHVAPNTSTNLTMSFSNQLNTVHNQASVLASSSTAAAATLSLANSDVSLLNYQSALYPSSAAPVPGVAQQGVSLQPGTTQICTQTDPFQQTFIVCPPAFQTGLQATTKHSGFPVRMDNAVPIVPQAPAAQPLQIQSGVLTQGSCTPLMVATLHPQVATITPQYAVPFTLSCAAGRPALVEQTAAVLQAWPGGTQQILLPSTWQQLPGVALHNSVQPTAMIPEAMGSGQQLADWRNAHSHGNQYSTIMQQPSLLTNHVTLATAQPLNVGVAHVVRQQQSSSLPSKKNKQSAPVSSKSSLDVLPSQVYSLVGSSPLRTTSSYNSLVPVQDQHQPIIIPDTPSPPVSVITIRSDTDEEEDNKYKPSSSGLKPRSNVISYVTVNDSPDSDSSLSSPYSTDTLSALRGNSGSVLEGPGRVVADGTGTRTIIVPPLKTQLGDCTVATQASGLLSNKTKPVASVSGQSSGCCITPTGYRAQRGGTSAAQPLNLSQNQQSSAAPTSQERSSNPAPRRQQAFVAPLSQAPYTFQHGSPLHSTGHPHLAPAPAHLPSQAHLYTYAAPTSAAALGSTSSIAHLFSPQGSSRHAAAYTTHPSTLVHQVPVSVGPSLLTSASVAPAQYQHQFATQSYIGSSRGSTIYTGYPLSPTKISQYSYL
Description: as §1

[17] = target: T17, MARK2 (Homo sapiens, UniProt Q7KZI7); assay: ProfilerPro Kinase Selectivity, MARK2; conditions: tested at 10 uM, read-out: percent inhibition of the kinase activity
T17 construct: purchased Caliper LifeSciences
Description: as §1

[18] = target: T18, AXL (Homo sapiens, UniProt P30530); assay: ProfilerPro Kinase Selectivity, AXL; conditions: tested at 10 uM, read-out: percent inhibition of the kinase activity
T18 construct: purchased Caliper LifeSciences
Description: as §1

[19] = target: T19, SGK3 (Homo sapiens, UniProt Q96BR1); assay: ProfilerPro Kinase Selectivity, SGK3; conditions: tested at 10 uM, read-out: percent inhibition of the kinase activity
T19 construct: purchased Caliper LifeSciences
Description: as §1

[20] = target: T20, BTK (Homo sapiens, UniProt Q06187); assay: ProfilerPro Kinase Selectivity, BTK; conditions: tested at 10 uM, read-out: percent inhibition of the kinase activity
T20 construct: purchased Caliper LifeSciences
Description: as §1

[21] = target: T21, RET Y791F (Homo sapiens, UniProt P07949, Y791F); assay: ProfilerPro Kinase Selectivity, RET Y791F; conditions: tested at 10 uM, read-out: percent inhibition of the kinase activity
T21 construct: purchased Caliper LifeSciences
Description: as §1

[22] = target: T22, ERK1 (Homo sapiens, UniProt P27361); assay: ProfilerPro Kinase Selectivity, ERK1; conditions: tested at 10 uM, read-out: percent inhibition of the kinase activity
T22 construct: purchased Caliper LifeSciences
Description: as §1

[23] = target: T23, PRKCB2 (Homo sapiens, UniProt P05771); assay: ProfilerPro Kinase Selectivity, PRKCB2; conditions: tested at 10 uM, read-out: percent inhibition of the kinase activity
T23 construct: purchased Caliper LifeSciences
Description: as §1

[24] = target: T24, INSR (Homo sapiens, UniProt P06213); assay: ProfilerPro Kinase Selectivity, INSR; conditions: tested at 10 uM, read-out: percent inhibition of the kinase activity
T24 construct: purchased Caliper LifeSciences
Description: as §1

[25] = target: T25, MST3 (Homo sapiens, UniProt Q9Y6E0); assay: ProfilerPro Kinase Selectivity, MST3; conditions: tested at 10 uM, read-out: percent inhibition of the kinase activity
T25 construct: purchased Caliper LifeSciences
Description: as §1

[26] = target: T26, CSNK1A1 (Homo sapiens, UniProt P48729); assay: ProfilerPro Kinase Selectivity, CSNK1A1; conditions: tested at 10 uM, read-out: percent inhibition of the kinase activity
T26 construct: purchased Caliper LifeSciences
Description: as §1

[27] = target: T27, TYRO3 (Homo sapiens, UniProt Q06418); assay: ProfilerPro Kinase Selectivity, TYRO3; conditions: tested at 10 uM, read-out: percent inhibition of the kinase activity
T27 construct: purchased Caliper LifeSciences
T27 sequence (Q06418 41-890, species assumed): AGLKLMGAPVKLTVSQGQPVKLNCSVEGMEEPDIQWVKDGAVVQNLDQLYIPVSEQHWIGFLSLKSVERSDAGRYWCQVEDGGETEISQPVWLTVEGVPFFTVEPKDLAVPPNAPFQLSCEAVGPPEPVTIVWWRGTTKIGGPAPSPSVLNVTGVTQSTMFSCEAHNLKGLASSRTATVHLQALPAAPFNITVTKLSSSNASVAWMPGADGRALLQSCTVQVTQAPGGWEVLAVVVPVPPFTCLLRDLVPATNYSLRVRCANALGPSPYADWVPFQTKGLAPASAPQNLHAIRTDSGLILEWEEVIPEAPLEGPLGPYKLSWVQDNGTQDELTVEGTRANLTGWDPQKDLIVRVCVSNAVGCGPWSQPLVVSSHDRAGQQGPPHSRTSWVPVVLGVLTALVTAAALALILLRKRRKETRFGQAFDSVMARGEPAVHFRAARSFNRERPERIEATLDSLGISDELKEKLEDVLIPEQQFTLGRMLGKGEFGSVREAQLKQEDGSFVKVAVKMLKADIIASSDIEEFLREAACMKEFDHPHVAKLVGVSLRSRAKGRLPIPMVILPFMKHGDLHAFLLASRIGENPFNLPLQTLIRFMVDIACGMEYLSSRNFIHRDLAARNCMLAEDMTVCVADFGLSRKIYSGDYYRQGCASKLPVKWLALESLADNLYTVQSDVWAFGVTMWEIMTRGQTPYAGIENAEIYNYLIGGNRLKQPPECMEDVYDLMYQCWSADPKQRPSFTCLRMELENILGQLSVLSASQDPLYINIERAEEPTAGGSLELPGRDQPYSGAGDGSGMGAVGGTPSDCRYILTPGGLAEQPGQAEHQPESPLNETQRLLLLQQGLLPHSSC
Description: as §1

[28] = target: T28, MAPKAPK2 (Homo sapiens, UniProt P49137); assay: ProfilerPro Kinase Selectivity, MAPKAPK2; conditions: tested at 10 uM, read-out: percent inhibition of the kinase activity
T28 construct: purchased Caliper LifeSciences
T28 sequence (P49137 whole entry, species assumed): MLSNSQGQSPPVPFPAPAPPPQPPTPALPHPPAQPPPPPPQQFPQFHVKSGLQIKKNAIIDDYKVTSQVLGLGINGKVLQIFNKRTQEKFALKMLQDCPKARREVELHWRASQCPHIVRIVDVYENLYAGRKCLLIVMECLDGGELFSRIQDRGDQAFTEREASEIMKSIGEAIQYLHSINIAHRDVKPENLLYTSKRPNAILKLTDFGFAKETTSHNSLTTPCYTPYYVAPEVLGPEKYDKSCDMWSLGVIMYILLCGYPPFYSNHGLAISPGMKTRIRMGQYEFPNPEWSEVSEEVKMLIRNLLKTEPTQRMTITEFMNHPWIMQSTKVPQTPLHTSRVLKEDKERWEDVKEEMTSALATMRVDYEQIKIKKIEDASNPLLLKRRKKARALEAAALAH
Description: as §1

[29] = target: T29, PKACA (Homo sapiens, UniProt P17612); assay: ProfilerPro Kinase Selectivity, PKACA; conditions: tested at 10 uM, read-out: percent inhibition of the kinase activity
T29 construct: purchased Caliper LifeSciences
Description: as §1

[30] = target: T30, ABL T315I (Homo sapiens, UniProt P00519, T315I); assay: ProfilerPro Kinase Selectivity, ABL T315I; conditions: tested at 10 uM, read-out: percent inhibition of the kinase activity
T30 construct: purchased Caliper LifeSciences
Description: as §1

[31] = target: T31, ABL1 Y253F (Homo sapiens, UniProt P00519, Y253F); assay: ProfilerPro Kinase Selectivity, ABL1 Y253F; conditions: tested at 10 uM, read-out: percent inhibition of the kinase activity
T31 construct: purchased Caliper LifeSciences
Description: as §1

[32] = target: T32, MARK1 (Homo sapiens, UniProt Q9P0L2); assay: ProfilerPro Kinase Selectivity, MARK1; conditions: tested at 10 uM, read-out: percent inhibition of the kinase activity
T32 construct: purchased Caliper LifeSciences
T32 sequence (Q9P0L2 whole entry, species assumed): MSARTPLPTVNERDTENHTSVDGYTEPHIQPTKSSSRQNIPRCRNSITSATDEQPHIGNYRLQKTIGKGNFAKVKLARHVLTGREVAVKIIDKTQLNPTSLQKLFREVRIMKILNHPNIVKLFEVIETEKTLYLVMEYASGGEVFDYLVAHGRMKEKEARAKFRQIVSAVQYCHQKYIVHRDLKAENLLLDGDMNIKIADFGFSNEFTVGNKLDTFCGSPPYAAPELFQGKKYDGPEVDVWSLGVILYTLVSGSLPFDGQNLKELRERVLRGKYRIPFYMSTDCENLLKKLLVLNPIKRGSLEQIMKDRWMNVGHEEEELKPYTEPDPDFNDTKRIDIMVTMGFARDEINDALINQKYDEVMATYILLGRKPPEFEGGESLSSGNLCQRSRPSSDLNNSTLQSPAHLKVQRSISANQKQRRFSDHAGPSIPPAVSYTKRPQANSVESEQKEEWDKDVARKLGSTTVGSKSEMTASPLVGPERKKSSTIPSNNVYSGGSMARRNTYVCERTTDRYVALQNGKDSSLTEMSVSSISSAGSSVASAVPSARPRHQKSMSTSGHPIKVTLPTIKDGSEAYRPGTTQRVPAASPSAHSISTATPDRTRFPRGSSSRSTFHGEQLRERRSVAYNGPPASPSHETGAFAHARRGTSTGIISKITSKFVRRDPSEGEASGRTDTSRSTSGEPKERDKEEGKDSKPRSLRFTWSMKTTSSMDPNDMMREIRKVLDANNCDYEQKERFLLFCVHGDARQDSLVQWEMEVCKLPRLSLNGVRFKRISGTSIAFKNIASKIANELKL
Description: as §1

[33] = target: T33, KDR (Homo sapiens, UniProt P35968); assay: ProfilerPro Kinase Selectivity, KDR; conditions: tested at 10 uM, read-out: percent inhibition of the kinase activity
T33 construct: purchased Caliper LifeSciences
Description: as §1

[34] = target: T34, CDK3 (Homo sapiens, UniProt Q00526); assay: ProfilerPro Kinase Selectivity, CDK3; conditions: tested at 10 uM, read-out: percent inhibition of the kinase activity
T34 construct: purchased Caliper LifeSciences
Description: as §1

[35] = target: T35, SRC (Homo sapiens, UniProt P12931); assay: ProfilerPro Kinase Selectivity, SRC; conditions: tested at 10 uM, read-out: percent inhibition of the kinase activity
T35 construct: purchased Caliper LifeSciences
Description: as §1

[36] = target: T36, LRRK2 (G2019S) (Homo sapiens, UniProt Q5S007, G2019S); assay: ProfilerPro Kinase Selectivity, LRRK2 (G2019S); conditions: read-out: percent inhibition of the kinase activity
T36 construct: purchased Caliper LifeSciences
Description: Kinome selectivity profiling was performed using two example compounds according to the manufacturer's instructions using Caliper LifeSciences' ProfilerPro Kinase Selectivity Assay Kits. Compounds prepared in Examples 1 and 7 were tested at 10 uM and data were recorded using the Caliper LabChip® EZ Reader™.

CSc1sc(-c2cc[nH]n2)c2c1C(=O)CCC2 [Example 1, 3-(Methylsulfanyl)-1-(1H-pyrazol-3-yl)-6,7-dihydro-2-benzothiophen-4(5H)-one] gave an inhibition at 10 µM [1] of 39.3%, an inhibition at 10 µM [2] of 6.3% and an inhibition at 10 µM [3] of -6.8%. It also gave an inhibition at 10 µM [4] of 25.2%, an inhibition at 10 µM [5] of 10.6% and an inhibition at 10 µM [6] of 9%. For the same compound, the inhibition at 10 µM [7] was 8.5%, the inhibition at 10 µM [8] was 4.5% and the inhibition at 10 µM [9] was 4.4%. For the same compound, the inhibition at 10 µM [10] was 1.6%, the inhibition at 10 µM [11] was 4.6% and the inhibition at 10 µM [12] was 5.1%. For the same compound, the inhibition at 10 µM [13] was -0.6%, the inhibition at 10 µM [14] was 31.1% and the inhibition at 10 µM [15] was 4.2%. It also gave an inhibition at 10 µM [16] of 15.9%, an inhibition at 10 µM [17] of 0.3% and an inhibition at 10 µM [18] of 13.5%. The inhibition at 10 µM [19] was 4.6%, the inhibition at 10 µM [20] was 3.1% and the inhibition at 10 µM [21] was 37.6%. The inhibition at 10 µM [22] was -2%, the inhibition at 10 µM [23] was -7.4% and the inhibition at 10 µM [24] was 3.4%. The inhibition at 10 µM [25] was -2.2%, the inhibition at 10 µM [26] was 12.4% and the inhibition at 10 µM [27] was 8.6%. It also gave an inhibition at 10 µM [28] of 4.1%, an inhibition at 10 µM [29] of -6% and an inhibition at 10 µM [30] of 9.9%. The inhibition at 10 µM [31] was 2.5%, the inhibition at 10 µM [32] was -2.9% and the inhibition at 10 µM [33] was 16.4%. The inhibition at 10 µM [34] was 21.4%, the inhibition at 10 µM [35] was 7.3% and the inhibition at 10 µM [36] was 88.3%.

Compound CC1(C)CC(=O)c2c(SC3CCCC3)sc(-c3cc[nH]n3)c2C1 [Example 7, 3-(Cyclopentylsulfanyl)-6,6-dimethyl-1-(1H-pyrazol-3-yl)-6,7-dihydro-2-benzothiophen-4(5H)-one] has an inhibition at 10 µM [1] of 2.7%, an inhibition at 10 µM [2] of 11.8% and an inhibition at 10 µM [3] of -6.8%. For the same compound, the inhibition at 10 µM [4] was 5%, the inhibition at 10 µM [5] was 5.4% and the inhibition at 10 µM [6] was -2.6%. For the same compound, the inhibition at 10 µM [7] was -8.3%, the inhibition at 10 µM [8] was -0.9% and the inhibition at 10 µM [9] was 1.9%. For the same compound, the inhibition at 10 µM [10] was -1.6%, the inhibition at 10 µM [11] was 2.4% and the inhibition at 10 µM [12] was -0.3%. It also gave an inhibition at 10 µM [13] of -6.6%, an inhibition at 10 µM [14] of 3.7% and an inhibition at 10 µM [15] of 10.4%. The inhibition at 10 µM [16] was -1%, the inhibition at 10 µM [17] was 9.2% and the inhibition at 10 µM [18] was 12.3%. It also gave an inhibition at 10 µM [19] of 4.6%, an inhibition at 10 µM [20] of 4.8% and an inhibition at 10 µM [21] of 11.1%. The inhibition at 10 µM [22] was 1.9%, the inhibition at 10 µM [23] was 6.4% and the inhibition at 10 µM [24] was 0.9%. For the same compound, the inhibition at 10 µM [25] was -10.9%, the inhibition at 10 µM [26] was 2% and the inhibition at 10 µM [27] was 10.5%. It also gave an inhibition at 10 µM [28] of 2%, an inhibition at 10 µM [29] of -5.4% and an inhibition at 10 µM [30] of 2.6%. For the same compound, the inhibition at 10 µM [31] was 10.6%, the inhibition at 10 µM [32] was -0.6% and the inhibition at 10 µM [33] was -0.8%. The inhibition at 10 µM [34] was 2.5%, the inhibition at 10 µM [35] was 1.5% and the inhibition at 10 µM ([36]; LRRK2 (G2019S), tested at 10 uM) was 78.3%.
